From patent US11312692B1, “Polymorphic compounds and uses thereof” (Aldeyra Therapeutics, Inc., priority 2018, dated 2022)
Blank lines part the entries; values can stand above or below the molecule they belong to.

Columns and labels:
Type in all cases: physicochemical
[1] = Aqueous solubility at pH 1, 4.5 and 6.8 (HPLC concentration, XRPD of solids); settings: for solubility: thermodynamic from solid, shaken at ambient temperature
Protocol: Approximately 20 mg of each of Compounds 1 and 5-8 was weighed into three 2 mL vials. The appropriate pH buffer was added to achieve pH values of pH 1, 4.5 and 6.8. The pH was measured after buffer addition and the pH adjusted if required back to the appropriate pH. […]

[2] = Conversion of solid form on grinding (XRPD)
Protocol: (§1) Form C material was produced through crash cooling to −18° C. in acetonitrile, the material produced through this scale-up was identified as being similar to the previous Form C material.

[3] = Dynamic Vapour Sorption (DVS) with post-DVS XRPD; settings: for solid form post-DVS by XRPD: after DVS cycles
Protocol: Dynamic Vapour Sorption (DVS): approximately, 10 mg of sample was placed into a mesh vapour sorption balance pan and loaded into a DVS-1 dynamic vapour sorption balance, a DVS Intrinsic dynamic vapour sorption balance or a DVS Advantage dynamic vapour sorption balance by Surface Measurement Systems. The sample was subjected to a ramping profile from 40-90% relative humidity (RH) at 10% increments, maintaining the sample at each step until a stable weight had been achieved (dm/dt 0.004%, minimum step length 30 minutes, maximum step length 500 minutes) at 25° C. After completion of the sorption cycle, the sample was dried using the same procedure to 0% RH and then a second sorption cycle back to 40% RH. Two cycles were performed. The weight change during the sorption/desorption cycles were plotted, allowing for the hygroscopic nature of the sample to be determined. XRPD analysis was then carried out on any solid retained.

[4] = 1 week stability (40° C./75% RH, 80° C., ambient), XRPD and HPLC purity
Protocol: Scale up of both Forms B and C was carried out on the 200 mg scale. Form B was produced from acetone through evaporation. Characterisation of the solid, indicated the material had long lath-like crystals, with the remaining parameters consistent with the previously produced Form B material. Further analysis of the solid by NMR and mass spectrometry identified the material as an imine.
as §1

- aqueous solubility compared with other salt forms ([1]; versus Form C of Compound 5, Form A of Compound 6, Form B of Compound 7, Form B of Compound 8, pH 1, 4.5, 6.8 buffers, ca. 20 hours, ambient): far more soluble
Structure (SMILES): CC(C)(O)c1cc2oc(-c3ccccc3)nc2cc1N.CS(=O)(=O)O [Form A of Compound 1]

- solid form when ground [2]: mixture of Forms A and C
- hygroscopic nature (DVS) ([3]; DVS, 25° C.): slightly hygroscopic
- solid form post-DVS by XRPD [3]: Form A
- drop in purity over the stability period ([4]; 1 week, 40° C./75% RH, versus input Form C purity): 0.1%
- change in purity over the stability period ([4]; 1 week, 80° C.): no change
- change in purity over the stability period ([4]; 1 week, ambient conditions): no change
- solid form after 1 week stability by XRPD ([4]; all three conditions (40° C./75% RH, 80° C., ambient)): converted to Form A
Structure (SMILES): CC(C)(O)c1cc2oc(-c3ccccc3)nc2cc1N [Compound A, Form C]

- hygroscopic nature (DVS) ([3]; DVS, 25° C.): slightly hygroscopic
- uptake at 90% RH (DVS) ([3]; DVS, 25° C., 90% RH): 0.6%
- solid form post-DVS by XRPD [3]: consistent with the input material
Structure (SMILES): CC(C)(O)c1cc2oc(-c3ccccc3)nc2cc1N [Compound A, Form A]

- solubility ([1]; aqueous buffer, pH 4.5 buffer): ≥ 500 mg/mL
- solubility ([1]; aqueous buffer, pH 6.8 buffer): ≥ 500 mg/mL
- solubility ([1]; simulated gastric fluid, pH 1 buffer): ≥ 500 mg/mL
Structure (SMILES): CC(C)(O)c1cc2oc(-c3ccccc3)nc2cc1N [Compound 1 Form A]
